# Assay results: patent publication US20230101768A1, “METHOD TO TREAT MANGANESE TOXICITY AND MANGANESE-INDUCED PA[…] HUMANS” (priority 2021, published 2023)
# Key:
# [1] = test system: SLC39A8; details: oral manganese ~15 mg/kg daily from birth until 8 weeks
# Description: (§1) A well-characterized drinking water-based manganese exposure regimen was used to model human environmental manganese exposure by providing mice with ˜50 mg manganeseCl2.4H2O/kg body weight daily (˜15 mg absolute manganese/kg per day) from birth until 8 weeks of age. This, and related similar, dosing regimens: 1) approximate the increase in manganese exposure in humans consuming well water contaminated with 1.5 mg manganese/L, which is the median well water concentration associated with neurological deficits in children; 2) increase brain manganese levels by ˜2-3 fold, similar to human patients; 3) produce measurable neurobehavioral deficits without overt toxicity; and 4) model exposure to manganese in developmentally-sensitive early-life and adolescent periods (11). Pre-weaning manganese was delivered by pipette directly into the mouth, and post-weaning manganese was delivered in drinking water using procedures described in detail in ref. (11). In brief, pre-weaning dosing was adjusted to each animal's body weight. For this, a stock solution of 69.2 mg absolute manganese/ml prepared in milliQ water was diluted in milliQ water containing 2.5% (wt/vol) of the natural sweetener Stevia (to facilitate intake by pups), and the required manganese amount (0.2 μl manganese stock/g body weight) was delivered in a dose of ˜5-10 μl/animal. For post-weaning exposure, a 27.7 mg absolute manganese/ml stock solution was prepared in water and diluted to 0.069 mg absolute manganese/ml in drinking water, which provided mice with ˜15 mg absolute manganese/kg per day based on a daily water intake of ˜2-5 ml/mouse depending on age.
# (§2) Animals were euthanized using carbon dioxide and tissue dissected for qRT-PCR or ICPMS analyses as described by us previously (50).
# (§3) Quantitative RT-PCR assays. RNA extraction from HepG2 cells and mouse tissue, reverse transcription to cDNA, and qRT-PCR analyses were performed as described by us previously (47, 50). For analyses of mouse brain samples, a part of the midbrain, including the basal ganglia, was used. Transcript levels were quantified using the ΔΔCT method with 18S (in mice) or TBP (in HepG2 cells) as the internal control, also as described by us previously (47, 50).
# [2] = test system: SLC39A14; details: oral manganese ~15 mg/kg daily from birth until 8 weeks
# Description: as §1, §2, §3
# [3] = test system: C57BL/6J mice; details: C57BL/6J mice, open field 6-15 min interval, ~30 mg manganese/kg daily in drinking water, 4 weeks
# Description: To assay for the protective effect of roxadustat, animals were exposed to roxadustat or vehicle with or without manganese in drinking water from ˜4 weeks of age. Treatment lasted for 4 weeks from initiation. Roxadustat (Selleckchem) was prepared as a 50 mg/ml stock solution in DMSO, then diluted to 1 mg/ml in sterile phosphate buffered saline (PBS), and delivered by daily i.p. injection at 10 mg/kg. Vehicle was 2% DMSO in PBS. For this experiment, drinking water manganese levels were adjusted to 0.138 mg absolute manganese/ml so that animals received ˜30 mg absolute manganese/kg daily. A higher level of manganese was used because exposure was initiated after weaning, which was necessary because daily i.p. injections for roxadustat delivery were not possible in the pre-weaning period.
# Open-field assays for neurobehavior assessment. Open-field analyses were performed as described in a recent publication (51).
# [4] = test system: prolyl hydroxylase domain 2 (PHD2); details: HepG2 cells, 250 μM manganese
# Description: as §3
# [5] = test system: SLC30A10; details: HepG2 cells, 250 μM manganese, immunoblot
# Description: Immunoblots. HepG2 cells were cultured in 35 mm dishes, treated with or without manganese, MG132 and/or prolyl hydroxylase inhibitors, and scrapped using 200 μl of RIPA buffer (50 mM Tris-HCl, pH7.4; 150 mM NaCl; 1Mm EDTA; 1% Triton; 0.25% sodium deoxycholate; protease inhibitors cocktail (Thermo A32953)). Whole-cell lysates were prepared by adding loading buffer (50 mM Tris-HCl, pH 7.4; 2% sodium dodecyl sulfate; 10% glycerol, 0.1 M dithiothreitol; 0.01% (weight/volume) bromophenol blue) and boiling the samples for 5 min. Equal volumes of samples were loaded per lane. Further processing was as described by us previously (47). Images were quantified using ImageQuant TL software (GE).
# Antibodies and chemicals. The inventors used the following commercial primary antibodies in this study: rabbit polyclonal anti-HIF1α (Abcam, Ab2185), rabbit polyclonal anti-HIF2α (Novus, NB100-122), rabbit monoclonal anti-HIF1α proline 564 (Cell signaling, 3434S), and mouse monoclonal anti-tubulin (Sigma, T5168). […] Sources of chemicals not provided elsewhere were Thermo Fisher Scientific or Sigma-Aldrich.
smiles,measurement,setting,value
"O.O.O.O.[Cl][Mn][Cl] [manganese, manganeseCl2.4H2O]",Hepatic and brain SLC39A8 levels,[1]; 129S4/SvJaeJ mice,elevated
same,Intestinal SLC39A8 levels,[1]; either strain,did not change
same,Hepatic and brain SLC39A14 levels,[2]; 129S4/SvJaeJ mice,elevated
same,Intestinal SLC39A14 levels,[2]; C57BL/6J mice,enhanced
same,"Vertical (rearing) movement versus vehicle-treated controls, manganese-only",[3],reduced
same,PHD2 levels in manganese-treated cells,[4],elevated
same,SLC30A10 protein levels after manganese,[5],increased
